Test results from patent US20230123334A1, “AMINO LIPID COMPOUND, PREPARATION METHOD THEREFOR, AND APPLICATION THEREOF” (SHENZHEN SHENXIN BIOTECHNOLOGY CO., LTD., priority 2020, published 2023).

System: HEK293 cells
Assay: Preliminary screening as mRNA vectors, EGFP mRNA transfection of HEK293 cells
Assay type: cell-based
Conditions: EGFP mRNA 50 ng per well, 96-well plates; percentage of GFP fluorescent cells relative to total number of cells (Hoechst)
Description: Cell line: HEK293 cells (ATCC CRL-1573™)
Medium: DMEM supplemented with 10% fetal bovine serum (Invitrogen)
Screening: cell transfection on 96-well plates
Detection (readout): percentage of the number of GFP fluorescent cells relative to the total number of cells (the total number of cells was determined using nucleus dye Hoechst). Lipofectamine2000 (Invitrogen) was used as the positive control.
Method: the experimental method was basically the same with Example 4, and the mass of EGFP mRNA (TriLink) for transfection was 50 ng per well.

CCCCCCCCCCCCNc1nc(NCCN2CCOCC2)nc(SCCCCCCCCCCCC)n1 [Compound D2S12N12]
Absolute mRNA transfection efficiency in HEK293 cells: 0.0%

CCCCCCCCSc1nc(NCCN2CCN(C)CC2)nc(SCCCCCCCC)n1 [Compound D5S8S8]
Absolute mRNA transfection efficiency in HEK293 cells: 45.2%

CCCCCCCCCCCCCCCCCCSc1nc(NCCCCCCCCCCCCCCCC)nc(NCCN2CCCC2)n1 [Compound D3S18N16]
Absolute mRNA transfection efficiency in HEK293 cells: 0.5%

CCCCCCCCCCCCSc1nc(NCCCCCCCCC)nc(NCC2CCN(C)CC2)n1 [Compound D10S12N9]
Absolute mRNA transfection efficiency in HEK293 cells: 17.5%

CCCCCCCCCCCCCCSc1nc(NCCCCCC)nc(NCCN2CCOCC2)n1 [Compound D2S14N6]
Absolute mRNA transfection efficiency in HEK293 cells: 8.8%

CCCCCCCCCCCCCNc1nc(NCCN(CC)CC)nc(SCCCCCCCCCCCC)n1 [Compound D7S12N13]
Absolute mRNA transfection efficiency in HEK293 cells: 4.9%

CCCCCCCCCCCCCCSc1nc(NCCCCCCCCC)nc(NCCCN2CCOCC2)n1 [Compound D8S14N9]
Absolute mRNA transfection efficiency in HEK293 cells: 2.3%

CCCCCCCCCNc1nc(NCCN2CCCC2)nc(SCCCCCC)n1 [Compound D3S6N9]
Absolute mRNA transfection efficiency in HEK293 cells: 0.3%

CCCCCCCCCCCCNc1nc(NCCN2CCN(C)CC2)nc(SCCCCCCCCCCCC)n1 [Compound D5S12N12]
Absolute mRNA transfection efficiency in HEK293 cells: 3.5%

CCCCCCCCCCCCCCCCCCSc1nc(NCCCCCC)nc(NCCN2CCCCC2)n1 [Compound D4S18N6]
Absolute mRNA transfection efficiency in HEK293 cells: 1.5%

CCCCCCCCCCCCSc1nc(NCCCN2CCN(C)CC2)nc(SCCCCCCC)n1 [Compound D9S7S12]
Absolute mRNA transfection efficiency in HEK293 cells: 26.4%

CCCCCCCCCCCCCCCSc1nc(NCCCCCCCCCCC)nc(NCCN(CC)CC)n1 [Compound D7S15N11]
Absolute mRNA transfection efficiency in HEK293 cells: 5.0%

CCCCCCCCCCCCCCCCSc1nc(NCCCCCCCC)nc(NCCN2CCCC2)n1 [Compound D3S16N8]
Absolute mRNA transfection efficiency in HEK293 cells: 97.7%

CCCCCCCCCCCCN(CCCCCCCCCCCC)c1nc(NCCCN2CCOCC2)nc(SCCCCCCC)n1 [D8S7^2N12]
Absolute mRNA transfection efficiency in HEK293 cells: 0.6%

CCCCCCCNc1nc(NCC2CCN(C)CC2)nc(SCCCCCCC)n1 [Compound D10S7N7]
Absolute mRNA transfection efficiency in HEK293 cells: 0.9%

CCCCCCCCCCCCCCCCCCSc1nc(NCCCN2CCOCC2)nc(N(CCCCCCCCCCCC)CCCCCCCCCCCC)n1 [D8S18^2N12]
Absolute mRNA transfection efficiency in HEK293 cells: 0.0%

CCCCCCCCCCSc1nc(NCCCN(C)C)nc(SCCCCCC)n1 [Compound D6S6S10]
Absolute mRNA transfection efficiency in HEK293 cells: 31.4%

CCCCCCCCCCCNc1nc(NCCCN2CCN(C)CC2)nc(SCCCCCCCCC)n1 [Compound D9S9N11]
Absolute mRNA transfection efficiency in HEK293 cells: 49.2%

CCCCCCCCCCCCCCCSc1nc(NCCCN2CCN(C)CC2)nc(N(CCCCCCCCCCCC)CCCCCCCCCCCC)n1 [D9S15^2N12]
Absolute mRNA transfection efficiency in HEK293 cells: 0.4%

CCCCCCCCCNc1nc(NCCN2CCOCC2)nc(SCCCCCCCCC)n1 [Compound D2S9N9]
Absolute mRNA transfection efficiency in HEK293 cells: 38.5%

CCCCCCCCCCSc1nc(NCCN(CC)CC)nc(SCCCCCCC)n1 [Compound D7S7S10]
Absolute mRNA transfection efficiency in HEK293 cells: 1.7%

CCCCCCNc1nc(NCCN2CCN(C)CC2)nc(SCCCCCC)n1 [Compound D5S6N6]
Absolute mRNA transfection efficiency in HEK293 cells: 2.1%

CCCCCCCCCCCNc1nc(NCCN2CCN(C)CC2)nc(SCCCCCCCCCCC)n1 [Compound D5S11N11]
Absolute mRNA transfection efficiency in HEK293 cells: 36.5%

CCCCCCCCCSc1nc(NCCN(CC)CC)nc(SCCCCCC)n1 [Compound D7S6S9]
Absolute mRNA transfection efficiency in HEK293 cells: 4.2%

CCCCCCCCCCCCCCCCSc1nc(NCCCCCCCCCCCCC)nc(NCCN2CCCCC2)n1 [Compound D4S16N13]
Absolute mRNA transfection efficiency in HEK293 cells: 0.1%

CCCCCCCCCNc1nc(NCCN2CCN(C)CC2)nc(SCCCCCCCCC)n1 [Compound D5S9N9]
Absolute mRNA transfection efficiency in HEK293 cells: 38.2%

CCCCCCCCCCCCCCCCSc1nc(NCCN(C)C)nc(N(CCCCCCCCCCCC)CCCCCCCCCCCC)n1 [D1S16^2N12]
Absolute mRNA transfection efficiency in HEK293 cells: 0.0%

CCCCCCCCCCCCCNc1nc(NCCN2CCCCC2)nc(SCCCCCCCCC)n1 [Compound D4S9N13]
Absolute mRNA transfection efficiency in HEK293 cells: 10.8%

CCCCCCCCCCCCNc1nc(NCCN2CCN(C)CC2)nc(SCCCCCCC)n1 [Compound D5S7N12]
Absolute mRNA transfection efficiency in HEK293 cells: 23.0%

CCCCCCCCCCCCCCCCCCSc1nc(NCCCCCCCCCCCCCCCC)nc(NCCCN(C)C)n1 [Compound D6S18N16]
Absolute mRNA transfection efficiency in HEK293 cells: 0.0%

CCCCCCCCCCCCCCSc1nc(NCCCCCCCCC)nc(NCCN(CC)CC)n1 [Compound D7S14N9]
Absolute mRNA transfection efficiency in HEK293 cells: 29.8%

CCCCCCCCCCCCCCCSc1nc(NCCCN2CCOCC2)nc(N(CCCCCCCCCCCC)CCCCCCCCCCCC)n1 [D8S15^2N12]
Absolute mRNA transfection efficiency in HEK293 cells: 2.9%

CCCCCCCCCCCCSc1nc(NCCCN(C)C)nc(SCCCCCCCC)n1 [Compound D6S8S12]
Absolute mRNA transfection efficiency in HEK293 cells: 61.9%

CCCCCCCCCCCCCCCNc1nc(NCCN2CCCC2)nc(SCCCCCCCCCCCCCCC)n1 [Compound D3S15N15]
Absolute mRNA transfection efficiency in HEK293 cells: 2.6%

CCCCCCCCCCCSc1nc(NCC2CCN(C)CC2)nc(SCCCCCCC)n1 [Compound D10S7S11]
Absolute mRNA transfection efficiency in HEK293 cells: 60.8%

CCCCCCCCCCCCNc1nc(NCCN(C)C)nc(SCCCCCCCCCC)n1 [Compound D1S10N12]
Absolute mRNA transfection efficiency in HEK293 cells: 2.4%

CCCCCCCCCCCCCCCCSc1nc(NCCCCCCCCC)nc(NCCCN(C)C)n1 [Compound D6S16N9]
Absolute mRNA transfection efficiency in HEK293 cells: 76.1%

CCCCCCCCCCCCCCSc1nc(NCCCCCCCCCCCCC)nc(NCCN(CC)CC)n1 [Compound D7S14N13]
Absolute mRNA transfection efficiency in HEK293 cells: 11.7%

CCCCCCCCSc1nc(NCCN(CC)CC)nc(SCCCCCCC)n1 [Compound D7S7S8]
Absolute mRNA transfection efficiency in HEK293 cells: 42.1%

CCCCCCCCCCCCNc1nc(NCCN2CCN(C)CC2)nc(SCCCCCCCC)n1 [Compound D5S8N12]
Absolute mRNA transfection efficiency in HEK293 cells: 52.5%

CCCCCCCCCCCCCCCSc1nc(NCCCCCC)nc(NCCN(CC)CC)n1 [Compound D7S15N6]
Absolute mRNA transfection efficiency in HEK293 cells: 2.7%

CCCCCCCCCCCCSc1nc(NCCN2CCN(C)CC2)nc(N(CCCCCCCCCCCC)CCCCCCCCCCCC)n1 [D5S12^2N12]
Absolute mRNA transfection efficiency in HEK293 cells: 1.6%

CCCCCCCCCCCCCCCCSc1nc(NCCN2CCN(C)CC2)nc(SCCCCCCC)n1 [Compound D5S7S16]
Absolute mRNA transfection efficiency in HEK293 cells: 49.2%

CCCCCCCCCCCSc1nc(NCCCN2CCOCC2)nc(SCCCCCCCC)n1 [Compound D8S8S11]
Absolute mRNA transfection efficiency in HEK293 cells: 22.2%

CCCCCCCCCCCCCCCCNc1nc(NCCCN(C)C)nc(SCCCCCCCCCCC)n1 [Compound D6S11N16]
Absolute mRNA transfection efficiency in HEK293 cells: 6.2%

CCCCCCCCCCCCCCCSc1nc(NCCCCCCCCC)nc(NCCN2CCCCC2)n1 [Compound D4S15N9]
Absolute mRNA transfection efficiency in HEK293 cells: 1.8%

CCCCCCCCCCCCCCCNc1nc(NCCN2CCN(C)CC2)nc(SCCCCCCCCCCCC)n1 [Compound D5S12N15]
Absolute mRNA transfection efficiency in HEK293 cells: 0.8%

CCCCCCCCCCCCCCCCNc1nc(NCCN2CCOCC2)nc(SCCCCCCCCCCCCCC)n1 [Compound D2S14N16]
Absolute mRNA transfection efficiency in HEK293 cells: 0.1%

CCCCCCCSc1nc(NCCN2CCCCC2)nc(SCCCCCC)n1 [Compound D4S6S7]
Absolute mRNA transfection efficiency in HEK293 cells: 1.2%

CCCCCCCCCCCCSc1nc(NCCCCCCC)nc(NCC2CCN(C)CC2)n1 [Compound D10S12N7]
Absolute mRNA transfection efficiency in HEK293 cells: 1.7%

CCCCCCCCCCCCCCCSc1nc(NCCCCCCCCCCC)nc(NCCN2CCCC2)n1 [Compound D3S15N11]
Absolute mRNA transfection efficiency in HEK293 cells: 23.2%

CCCCCCCCCCCCCCSc1nc(NCCN2CCCC2)nc(SCCCCCC)n1 [Compound D3S6S14]
Absolute mRNA transfection efficiency in HEK293 cells: 0.3%

CCCCCCCCCCCCCCCSc1nc(NCCCCCCCC)nc(NCCN2CCCC2)n1 [Compound D3S15N8]
Absolute mRNA transfection efficiency in HEK293 cells: 17.0%

CCCCCCCCCCCCCCCCNc1nc(NCCCN2CCN(C)CC2)nc(SCCCCCCCCC)n1 [Compound D9S9N16]
Absolute mRNA transfection efficiency in HEK293 cells: 16.7%

CCCCCCCCNc1nc(NCCN(CC)CC)nc(SCCCCCC)n1 [Compound D7S6N8]
Absolute mRNA transfection efficiency in HEK293 cells: 3.5%

CCCCCCCCCSc1nc(NCCN2CCOCC2)nc(SCCCCCCC)n1 [Compound D2S7S9]
Absolute mRNA transfection efficiency in HEK293 cells: 37.7%

CCCCCCCCCCCCCCCCCCSc1nc(NCCCCCCCCCCC)nc(NCCCN2CCN(C)CC2)n1 [Compound D9S18N11]
Absolute mRNA transfection efficiency in HEK293 cells: 4.3%

CCCCCCCCCCCCCCCSc1nc(NCC2CCN(C)CC2)nc(SCCCCCC)n1 [Compound D10S6S15]
Absolute mRNA transfection efficiency in HEK293 cells: 40.0%

CCCCCCCCCCSc1nc(NCCCCCCCC)nc(NCCN(C)C)n1 [Compound D1S10N8]
Absolute mRNA transfection efficiency in HEK293 cells: 0.5%

CCCCCCCCNc1nc(NCCN2CCOCC2)nc(SCCCCCCCC)n1 [Compound D2S8N8]
Absolute mRNA transfection efficiency in HEK293 cells: 0.9%

CCCCCCCCCCCCCCSc1nc(NCCCCCC)nc(NCC2CCN(C)CC2)n1 [Compound D10S14N6]
Absolute mRNA transfection efficiency in HEK293 cells: 41.9%

CCCCCCCCCCCCCNc1nc(NCCCN(C)C)nc(SCCCCCCCC)n1 [Compound D6S8N13]
Absolute mRNA transfection efficiency in HEK293 cells: 58.0%

CCCCCCCCCCCCCCCCNc1nc(NCCN2CCCCC2)nc(SCCCCCCC)n1 [Compound D4S7N16]
Absolute mRNA transfection efficiency in HEK293 cells: 1.3%

CCCCCCCCCCCCCCCCCCNc1nc(NCCN2CCCCC2)nc(SCCCCCCCCCCCC)n1 [Compound D4S12N18]
Absolute mRNA transfection efficiency in HEK293 cells: 4.6%

CCCCCCCCCCCCCCCCNc1nc(NCCN(CC)CC)nc(SCCCCCCCCCC)n1 [Compound D7S10N16]
Absolute mRNA transfection efficiency in HEK293 cells: 19.3%
